Results on six molecules are retold here after US11590092B2, “Skin probiotic” (The Regents of the University of California, priority 2014, dated 2023).

As a reminder, the MBC is the lowest tested concentration that kills the bacteria rather than only halting them. Read a high MBC as less potent killing.

The subject of test [1] is P. acnes. Put plainly: MBC assays of SCFAs against P. acnes. To be noted: for MBC: Cutibacterium acnes, P. acnes 10^8 CFU/ml, overnight, 99.9% killing level. It is filed as cell-based, Propionibacterium acnes. On the procedure: To determine the MBC values of SCFAs, P. acnes (10^8 CFU/ml) was incubated with SCFAs at various concentrations (2.5-100 mM in PBS) as indicated in each individual experiment in media on a 96-well microplate (100 μl per well) overnight. The control received only PBS. After incubation, the bacteria were diluted 1:10-1:10^6 with PBS. MBC was defined as a 99.9% killing level and determined by spotting the dilution (5 μl) on an agar plate supplemented with media for CFU counting. To determine the effect of pH on its growth, P. acnes in PBS was incubated with 5 mM succinic acid on a 96-well microplate (100 μl per well) overnight before spotting on an agar plate. As controls, P. acnes was incubated with PBS (pH 7.4) alone, PBS (pH 5.5; a pH value corresponding to the MBC of succinic acid in PBS), or buffered succinic acid (5 mM succinic acid, pH 7.4 buffered with ammonium hydroxide).
The minimal bactericidal concentration (MBC) assays were performed to determine if SCFAs exert the antimicrobial activities against P. acnes. Bacteria were incubated with acetic acid, butyric acid, lactic acid, and succinic acid various concentrations in media for 24 h. After incubation, the bacteria were diluted with PBS and spotted on an agar plate to count CFUs. […] To assess the acidity (pH 5.5) of 5 mM succinic acid in affecting growth of P. acnes, bacteria were incubated with PBS (pH 5.5) or ammonium hydroxide-buffered succinic acid (pH 7.4).

The subject of test [2] is USA300. Kind of test: Growth of USA300 with glycerol. It is filed as cell-based, Staphylococcus aureus. To be noted: glycerol itself.
The subject of test [3] is USA300. Put plainly: Interference of P. acnes fermentation with the colonization of USA300 in skin wounds in vivo. To be noted: glycerol 0.2 mg alone, compared to PBS. Set-up: species or system ICR mice. On the procedure:
A 5 mm wound made on the dorsal skin of ICR mice were described above. P. acnes bacteria (10^7 CFU in 5 μl PBS), P. acnes bacteria and glycerol (0.2 mg), PBS (5 μl) alone or glycerol alone were applied onto the skin wounds for 3 days. USA300 (10^7 CFU in 5 μl PBS) was administered onto the same wounds. The wounds were excised, weighted and homogenized 3 days after USA300 administration. Bacterial CFUs in the wounds were enumerated by plating serial dilutions (1:10^1-1:10^6) of the homogenate on a TSB agar plate. The plate was incubated for 24 h at 37° C. to count colonies of USA300.

Test [4] relates to P. acnes. Put plainly: Growth curve of P. acnes in absence or presence of glycerol (OD600). It is filed as cell-based, Propionibacterium acnes. The conditions noted are these: rich medium with glycerol vs without, anaerobic, 30° C. Here is the method:
P. acnes was incubated in rich medium in the absence (□) and presence (▪) of glycerol on a 96-well microplate under anaerobic conditions at 30° C. The OD600 was read at the indicated time points. Data are the mean±SD of three separate experiments.

Test [5] relates to USA300. Put plainly: MBC assay against USA300. It is filed as cell-based, Staphylococcus aureus. Here is the method:
To determine the MBC of propionic acid, USA300 (10^6 CFU/ml) were incubated with propionic acid at various concentrations (1.25-100 mM in PBS) as indicated in each individual experiment in media on a 96-well microplate (100 μl per well) overnight. The control received only PBS. After incubation, the bacteria were diluted 1:10-1:10^6 with PBS. […] To determine the pH effect on the bacterial growth, USA300 in TSB was incubated with 2.5 mM propionic acid on a 96-well microplate (100 μl per well) overnight before spotting on an agar plate.
To determine the minimal bactericidal concentration (MBC) and minimal fungicidal concentration (MFC) of propionic acid, microorganisms (10^6 colony forming units (cfu)/ml) were incubated overnight in media with propionic acid (1.25-2,000 mM) in a 96-well microplate (100 μl per well). The control only received PBS. After incubation, the microorganisms were diluted 1:10-1:10^6 into PBS. […]

The subject of test [6] is P. acnes.
The subject of test [7] is P. acnes. To be noted: 5 mM, 5 min after treatment, vs PBS.
Description: To eliminate unbound probe, bacteria were incubated with glucose (10 mM) for an additional 30 min, washed twice in 50 mM PBS with 10 mM MgCl2, pH 7.0, and then re-suspended in 1 mM PBS. […] Fluorescence intensities were measured immediately and every min for 5 min using an excitation wavelength of 490 nm and emission wavelength of 520 nm. A drop in relative fluorescence indicates the decrease in intracellular pH. Fluorescence of the bacteria-free filtrate (background fluorescence) was measured after the 5-min assay. The treated suspensions were centrifuged at 5,000 g for 5 min, the fluorescence of the bacteria-free supernatant was measured. Calibration curves were obtained by incubation of un-treated, cFSE-loaded bacteria in buffers of various pHs. The buffer containing glycine (50 mM), citric acid (50 mM), Na2HPO4.2H2O (50 mM), and KCl (50 mM) was adjusted to various pH values ranging from 4 to 10. Equilibration of the intracellular and extracellular pH was conducted by addition of 1 μM valinomycin and nigericin (Sigma, St. Louis, Mo.).
P. acnes was loaded with an internally conjugated fluorescent pH probe, carboxyfluorescein succinimidyl ester (cFSE).
[8] abbreviates: topical application, 100 mM once per day, vs PBS.

Structures are written as SMILES. Values after ≈ are worked out from the molar mass of the structure shown. “Also recorded” adds a separate entry of the source.

Turning to `CCCC(=O)O` [butyric acid], the MBC against P. acnes [1] was determined as 10 mM (≈ 881 µg/mL).
With `OCC(O)CO` [glycerol], the “growth of USA300” value with USA300 [2] is recorded as “did not influence”. Also, in the test on USA300 [3], the USA300 colonization result is listed as “did not significantly alter” and the “size of USA300-infected lesions” value was “did not significantly alter”. Besides, the “growth of P. acnes” value with P. acnes [4] was “did not influence; also recorded: did not change significantly”.
`CC(=O)O` [acetic acid] registered a minimum bactericidal concentration (MBC) against P. acnes [1] of 7.5 mM (≈ 450 µg/mL).
With `CCC(=O)OCCOCCOC(=O)CC` [PA-DEG-PA, propionic acid 2-(2-propionyloxyethoxy)ethyl ester], in the test with USA300 [5] (4% dimethyl sufoxide), the “efficacy to suppress the growth of USA300 in vitro compared with propionic acid” value is “equivalent in efficacy”. Moreover, the “concentration for complete growth inhibition of USA300” value in the test with USA300 [5] (dissolved in 4% dimethyl sufoxide, overnight) stood at 100 mM. For the same molecule, the “MBC (>1 log10 inhibition) against USA300” value against USA300 [5] (dissolved in 4% dimethyl sufoxide, overnight, 0-100 mM) is at least 25 mM.
Regarding `CC(O)C(=O)O` (stereo not drawn) [lactic acid], in the test on P. acnes [1], the MBC turned out to be 10 mM (≈ 901 µg/mL).
Consider `O=C(O)CCC(=O)O` [succinic acid], for which the P. acnes-induced inflammation entry in the test with P. acnes [6] (application of succinic acid (FIG. 5)) is “significantly neutralizes”. Besides, the “P. acnes numbers in ears” value with P. acnes [6] (intralesional injection, 5 mM) is on record as 2.9×10^4±1.3×10^4 CFU. Besides, in the test with P. acnes [6] (intralesional injection, 5 mM, two days after injection, ELISA), the “MIP-2 production less than in PBS-injected ear” value is “approximately 50%”. Besides, the P. acnes-induced redness entry with P. acnes [6] (intralesional injection, 5 mM, vs PBS) was “reduced”. In addition, in the test on P. acnes [6] (setting [8]), the MIP-2 production entry is listed as “considerably lowered” and the P. acnes colonization entry was “considerably lowered”. The “intracellular pH of P. acnes” value in the test with P. acnes [7] is “significantly lowered”. Moreover, the “antimicrobial activity against P. acnes after buffering” value with P. acnes [1] (5 mM succinic acid buffered with ammonium hydroxide, pH 7.4) was “persisted”. This molecule also came in with an MBC in the test on P. acnes [1] of 5 mM (≈ 590 µg/mL). Further, in the test on P. acnes [1] (MBC assay), the “concentration that completely killed P. acnes” value is recorded as at least 210 mM and the “concentration that effectively suppressed the growth of P. acnes” value was at least 25 mM.
